This assay deals with NAD-dependent protein deacetylase HST2 (Saccharomyces cerevisiae S288c, UniProt P53686). The assay is described as follows: Binding affinity to Saccharomyces cerevisiae Hst2 by isothermal titration calorimetry.
NAD-dependent protein deacetylase HST2, sequence (P53686 whole entry): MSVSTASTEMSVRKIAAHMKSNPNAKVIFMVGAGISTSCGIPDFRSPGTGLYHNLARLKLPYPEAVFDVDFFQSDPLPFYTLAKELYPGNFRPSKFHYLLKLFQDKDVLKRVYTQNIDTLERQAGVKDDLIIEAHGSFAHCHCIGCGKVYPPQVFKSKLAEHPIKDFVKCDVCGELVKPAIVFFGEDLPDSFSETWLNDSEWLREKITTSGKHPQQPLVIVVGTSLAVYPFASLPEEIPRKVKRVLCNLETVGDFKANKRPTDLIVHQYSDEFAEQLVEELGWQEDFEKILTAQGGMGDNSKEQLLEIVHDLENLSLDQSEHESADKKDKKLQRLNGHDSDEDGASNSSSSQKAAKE

As to `C[C@H](NC(=O)[C@H](CCCCNC(=N)N)NC(=O)CNC(=O)CNC(=O)[C@@H](NC(=O)[C@H](CO)NC(=O)[C@@H](N)CCCCN)[C@@H](C)O)C(=O)N1CCC[C@H]1C(=O)N[C@@H](CCCNC(=N)N)C(=O)N[C@@H](CCCCN)C(=O)N[C@@H](CCC(N)=O)C(=O)O`, the Kd (in general, the constant that tells how readily two partners part at equilibrium) came to 3.3 µM.

Consider `C[C@H](NC(=O)[C@H](CCCCNC(=O)CF)NC(=O)CNC(=O)CNC(=O)[C@@H](NC(=O)[C@H](CO)NC(=O)[C@@H](N)CCCCN)[C@@H](C)O)C(=O)N1CCC[C@H]1C(=O)N[C@@H](CCCNC(=N)N)C(=O)N[C@@H](CCCCN)C(=O)N[C@@H](CCC(N)=O)C(=O)O`, for which the Kd was 3.3 µM. This counts as single-digit micromolar.

The compound `C[C@H](NC(=O)[C@H](CCCCNC(N)=O)NC(=O)CNC(=O)CNC(=O)[C@@H](NC(=O)[C@H](CO)NC(=O)[C@@H](N)CCCCN)[C@@H](C)O)C(=O)N1CCC[C@H]1C(=O)N[C@@H](CCCN=C(N)N)C(=O)N[C@@H](CCCCN)C(=O)N[C@@H](CCC(N)=O)C(=O)O` gave a Kd of 3.3 µM. In other words, the single-digit micromolar range.

Take `CC(=S)NCCCC[C@H](NC(=O)CNC(=O)CNC(=O)[C@@H](NC(=O)[C@H](CO)NC(=O)[C@@H](N)CCCCN)[C@@H](C)O)C(=O)N[C@@H](C)C(=O)N1CCC[C@H]1C(=O)N[C@@H](CCCNC(=N)N)C(=O)N[C@@H](CCCCN)C(=O)N[C@@H](CCC(N)=O)C(=O)O`: binding was characterised by a dissociation constant (Kd) of 3.3 µM.

Regarding `C[C@H](NC(=O)[C@H](CCCCNC(=O)C(F)F)NC(=O)CNC(=O)CNC(=O)[C@@H](NC(=O)[C@H](CO)NC(=O)[C@@H](N)CCCCN)[C@@H](C)O)C(=O)N1CCC[C@H]1C(=O)N[C@@H](CCCN=C(N)N)C(=O)N[C@@H](CCCCN)C(=O)N[C@@H](CCC(N)=O)C(=O)O`, the equilibrium dissociation constant (Kd) turned out to be 3.3 µM.

The compound `CC(=N)NCCCC[C@H](NC(=O)CNC(=O)CNC(=O)[C@@H](NC(=O)[C@H](CO)NC(=O)[C@@H](N)CCCCN)[C@@H](C)O)C(=O)N[C@@H](C)C(=O)N1CCC[C@H]1C(=O)N[C@@H](CCCN=C(N)N)C(=O)N[C@@H](CCCCN)C(=O)N[C@@H](CCC(N)=O)C(=O)O` showed a Kd of 3.3 µM.

As for `CCCC(=O)NCCCC[C@H](NC(=O)CNC(=O)CNC(=O)[C@@H](NC(=O)[C@H](CO)NC(=O)[C@@H](N)CCCCN)[C@@H](C)O)C(=O)N[C@@H](C)C(=O)N1CCC[C@H]1C(=O)N[C@@H](CCCN=C(N)N)C(=O)N[C@@H](CCCCN)C(=O)N[C@@H](CCC(N)=O)C(=O)O`, the dissociation constant Kd turned out to be 16 µM.

In turn, `C[C@H](NC(=O)[C@H](CCCCNC(=O)CO)NC(=O)CNC(=O)CNC(=O)[C@@H](NC(=O)[C@H](CO)NC(=O)[C@@H](N)CCCCN)[C@@H](C)O)C(=O)N1CCC[C@H]1C(=O)N[C@@H](CCCNC(=N)N)C(=O)N[C@@H](CCCCN)C(=O)N[C@@H](CCC(N)=O)C(=O)O` showed a Kd of 3.3 µM.
